System: blood-glucose concentration
Test: Decrease in blood-glucose concentration in rats after oral dose (Table 1; ED30 rats Table 2)
Type: in vivo
Conditions: Rattus norvegicus, po; for inhibition in vivo at 0.25 mg/kg: p.os. 0.25 mg/kg; for inhibition in vivo at 0.5 mg/kg: p.os. 0.5 mg/kg; for inhibition in vivo at 1 mg/kg: p.os. 1 mg/kg; for inhibition in vivo at 2 mg/kg: p.os. 2 mg/kg; for inhibition in vivo at 4 mg/kg: p.os. 4 mg/kg; for inhibition in vivo at 10 mg/kg: p.os. 10 mg/kg; for ED50: p.os., Table 1; for inhibition in vivo at 50 mg/kg: p.os. 50 mg/kg
From the text: The hypoglycemic activity of N-{4-[2-(pyrazole-1-carbonamide)-ethyl]-benzenesulphonyl}-ureas prepared according to the present invention can be noticed after their oral administration to mice, rats, rabbits and people and when determining the glucose concentration in blood with a known enzymatic method using glucose oxidase.
The exemplary comparison of effective doses (ED30) and the effect of oral dose size of the compounds prepared according to the present invention with Glibornuride, which is distinguished by its high effectiveness and good tolerance when administered to people, on the glucose concentration in the blood of rats, is given in Table 1.

Row | SMILES | inhibition in vivo at 1 mg/kg (1 h) [%] | inhibition in vivo at 1 mg/kg (3 h) [%] | inhibition in vivo at 1 mg/kg (6 h) [%] | inhibition in vivo at 2 mg/kg (1 h) [%] | inhibition in vivo at 2 mg/kg (3 h) [%] | inhibition in vivo at 2 mg/kg (6 h) [%] | inhibition in vivo at 4 mg/kg (1 h) [%] | inhibition in vivo at 4 mg/kg (3 h) [%] | inhibition in vivo at 10 mg/kg (1 h) [%] | inhibition in vivo at 10 mg/kg (3 h) [%] | inhibition in vivo at 10 mg/kg (6 h) [%] | ED50 [mg/kg] | inhibition in vivo at 4 mg/kg (6 h) [%] | further results
1 | O=C(NC1CCCCC1)NS(=O)(=O)c1ccc(CCNC(=O)n2cccn2)cc1 [compound 1] | 27 | 27 | 14 | 23 | 34 | 11 | 19 | 37 | 50 | 52 | 29 | 1.8 |  | inhibition in vivo at 0.25 mg/kg (1 h): 12%; inhibition in vivo at 0.25 mg/kg (3 h): 19%; inhibition in vivo at 0.25 mg/kg (6 h): 0%; inhibition in vivo at 0.5 mg/kg (1 h): 21%; inhibition in vivo at 0.5 mg/kg (3 h): 19%; inhibition in vivo at 0.5 mg/kg (6 h): 11%
2 | Cc1ccn(C(=O)NCCc2ccc(S(=O)(=O)NC(=O)NC3CCCCC3)cc2)n1 [compound 2] | 19 | 9 | 0 | 23 | 27 | 14 | 30 | 45 |  |  |  | 2.2 | 21 | 
3 | Cc1cnn(C(=O)NCCc2ccc(S(=O)(=O)NC(=O)NC3CCCCC3)cc2)c1 [compound 3] | 20 | 18 | 4 | 35 | 28 | 2 | 33 | 32 | 52 | 48 | 37 | 1.9 |  | 
4 | CCc1cnn(C(=O)NCCc2ccc(S(=O)(=O)NC(=O)NC3CCCCC3)cc2)c1 [compound 4] | 28 | 4 | 0 | 46 | 18 | 1 | 40 | 32 | 55 | 39 | 25 | 1.6 |  | 
5 | O=C(NC1CCCCC1)NS(=O)(=O)c1ccc(CCNC(=O)n2cc(Cl)cn2)cc1 [compound 5] |  |  |  |  |  |  |  |  | 16 | 0 |  |  |  | inhibition in vivo at 50 mg/kg (1 h): 38%; inhibition in vivo at 50 mg/kg (3 h): 36%; inhibition in vivo at 50 mg/kg (6 h): 12%
6 | Cc1cc(C)n(C(=O)NCCc2ccc(S(=O)(=O)NC(=O)NC3CCCCC3)cc2)n1 [compound 6] |  |  |  |  |  |  | 18 | 33 | 23 | 40 | 35 | 3.5 | 23 | 
7 | Cc1cn(C(=O)NCCc2ccc(S(=O)(=O)NC(=O)NC3CCCCC3)cc2)nc1C [compound 7] |  |  |  | 18 | 24 | 19 |  |  | 37 | 54 | 26 | 3.3 |  | inhibition in vivo at 0.25 mg/kg (1 h): 11%; inhibition in vivo at 0.25 mg/kg (3 h): 17%; inhibition in vivo at 0.25 mg/kg (6 h): 11%; inhibition in vivo at 0.5 mg/kg (1 h): 19%; inhibition in vivo at 0.5 mg/kg (3 h): 29%; inhibition in vivo at 0.5 mg/kg (6 h): 20%
8 | CCc1nn(C(=O)NCCc2ccc(S(=O)(=O)NC(=O)NC3CCCCC3)cc2)cc1C [compound 8] | 17 | 18 | 15 |  |  |  | 19 | 31 | 27 | 45 | 25 | 4 | 15 | 
9 | Cc1nn(C(=O)NCCc2ccc(S(=O)(=O)NC(=O)NC3CCCCC3)cc2)cc1Cl [compound 9] |  |  |  |  |  |  |  |  | 24 | 7 | 0 |  |  | 
10 | Cc1nn(C(=O)NCCc2ccc(S(=O)(=O)NC(=O)NC3CCCCC3)cc2)c(C)c1C [compound 10] |  |  |  |  |  |  | 24 | 35 | 35 | 49 | 17 | 4 | 28 | inhibition in vivo at 50 mg/kg (1 h): 48%; inhibition in vivo at 50 mg/kg (3 h): 62%; inhibition in vivo at 50 mg/kg (6 h): 52%
11 | CCc1c(C)nn(C(=O)NCCc2ccc(S(=O)(=O)NC(=O)NC3CCCCC3)cc2)c1C [compound 11] |  |  |  |  |  |  | 16 | 27 | 29 | 53 |  | 4.8 | 3 | inhibition in vivo at 50 mg/kg (1 h): 57%; inhibition in vivo at 50 mg/kg (3 h): 60%; inhibition in vivo at 50 mg/kg (6 h): 53%
12 | CCCc1c(C)nn(C(=O)NCCc2ccc(S(=O)(=O)NC(=O)NC3CCCCC3)cc2)c1C [compound 12] |  |  |  |  |  |  |  |  | 14 |  | 10 |  |  | inhibition in vivo at 50 mg/kg (1 h): 22%; inhibition in vivo at 50 mg/kg (3 h): 39%; inhibition in vivo at 50 mg/kg (6 h): 32%
13 | CCCCc1c(C)nn(C(=O)NCCc2ccc(S(=O)(=O)NC(=O)NC3CCCCC3)cc2)c1C [compound 13] |  |  |  |  |  |  |  |  | 0 |  |  |  |  | inhibition in vivo at 50 mg/kg (1 h): 18%; inhibition in vivo at 50 mg/kg (3 h): 27%; inhibition in vivo at 50 mg/kg (6 h): 3%
14 | Cc1nn(C(=O)NCCc2ccc(S(=O)(=O)NC(=O)NC3CCCCC3)cc2)c(C)c1Cl [compound 14] | 11 | 21 | 7 | 14 | 24 | 14 | 21 | 29 |  |  |  | 5 | 11 | 
15 | O=C(NC1CCCC1)NS(=O)(=O)c1ccc(CCNC(=O)n2cccn2)cc1 [compound 15] |  |  |  |  |  |  | 14 | 5 | 20 | 16 | 7 |  |  | 
16 | Cc1ccn(C(=O)NCCc2ccc(S(=O)(=O)NC(=O)NC3CCCC3)cc2)n1 [compound 16] |  |  |  |  |  |  | 18 | 14 | 16 | 20 |  |  |  | 
17 | Cc1cnn(C(=O)NCCc2ccc(S(=O)(=O)NC(=O)NC3CCCC3)cc2)c1 [compound 17] |  |  |  | 29 | 16 | 5 | 41 | 41 | 41 | 51 | 28 | 2.3 | 23 | 

Reference: patent publication US4153710A, “N-(4-[2-(pyrazole-1-carbonamide)-ethyl]-benzenesulphonyl)-urea” (Starogardzkie Zaklady Farmaceutyczne POLFA, priority 1976, dated 1979)
